Data: patent publication US6525001B1, “Substituted pyrimidine and pyridine herbicides” (Mid-American Commercialization Corporation, priority 1997, dated 2003)

Key:
Assay type in all cases: in vivo
[1] = system: wild poinsettia (Euphorbia heterophylla); assay: Test C; set-up: key: 0 was no effect; 100 was complete control
[2] = system: field bindweed (Convolvulus arvensis); assay: Test C; set-up: key: 0 was no effect; 100 was complete control
soybean (Glycine max) = assay: Test B pre-/postemergence; set-up: key: 0 is no effect; 10 is complete control
In short: (§1)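 Response scores run from 0, meaning no effect, to 10, meaning complete control, assigned by eye relative to controls twelve to sixteen days after spraying. Treatment was both preemergence on planted seed and postemergence on plants at the 1- to 4-leaf stage.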

rape (Brassica napus) = assay: Test B pre-/postemergence; set-up: key: 0 is no effect; 10 is complete control
In short: as §1

[3] = system: lambsquarters (Chenopodium album); assay: Test C; set-up: key: 0 was no effect; 100 was complete control
[4] = system: eastern black nightshade (Solanum ptycanthum); assay: Test C; set-up: key: 0 was no effect; 100 was complete control
[5] = system: cotton (Gossypium hirsutum); assay: Test C; set-up: key: 0 was no effect; 100 was complete control
rice (Oryza sativa) = assay: Test B flood test; set-up: key: 0 is no effect; 10 is complete control
In short: (§2)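 Each value is a visual injury score relative to controls, with 10 meaning complete control and 0 no effect. Evaluation took place twelve to sixteen days after the 2-leaf-stage plants were treated and kept in the greenhouse.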

[6] = system: bamyardgrass (Echinochloa crus-galli); assay: Test B flood test; set-up: key: 0 is no effect; 10 is complete control
In short: as §2

[7] = system: smallflower flatsedge (Cyperus difformis); assay: Test B flood test; set-up: key: 0 is no effect; 10 is complete control
In short: as §2

[8] = system: duck salad (Heteranthera limosa); assay: Test B flood test; set-up: key: 0 is no effect; 10 is complete control
In short: as §2

[9] = system: surinam grass (Brachiaria decumbens); assay: Test C; set-up: key: 0 was no effect; 100 was complete control
[10] = system: giant foxtail (Setaria faberii); assay: Test C; set-up: key: 0 was no effect; 100 was complete control
[11] = Rate 62 g/ha, Postemergence (flood test)
[12] = Rate 125 g/ha, Postemergence, flood test
[13] = Rate 250 g/ha, Postemergence (flood test species)
[14] = Rate 500 g/ha, Postemergence (flood test species)

## Cc1cnc(-n2ccc(C(F)(F)F)n2)nc1Cc1cccc(C(F)(F)F)c1 [Example 2, 5-methyl-4-[[3-(trifluoromethyl)phenyl]methyl]-2-[3-(trifluoromethyl)-1H-pyrazol-1-yl]pyrimidine]
[1]; PREEMERGENCE, Rate 35 g/ha
  Plant response rating, Wild poinsettia: 0
[1]; PREEMERGENCE, Rate 70 g/ha
  Plant response rating, Wild poinsettia: 5
[1]; PREEMERGENCE, Rate 140 g/ha
  Plant response rating, Wild poinsettia: 45
[2]; PREEMERGENCE, Rate 35 g/ha
  Plant response rating, Field bindweed: 0
[2]; PREEMERGENCE, Rate 70 g/ha
  Plant response rating, Field bindweed: 30
[2]; PREEMERGENCE, Rate 140 g/ha
  Plant response rating, Field bindweed: 100
Soybean (Glycine max); Rate 62 g/ha, Postemergence
  Plant response rating, Soybean: 6
Soybean (Glycine max); Rate 62 g/ha, Preemergence
  Soybean plant response rating: 0
Soybean (Glycine max); Rate 125 g/ha, Postemergence
  Plant response rating, Soybean: 7
Soybean (Glycine max); Rate 125 g/ha, Preemergence
  Soybean plant response rating: 1
Soybean (Glycine max); Rate 250 g/ha, Postemergence
  Plant response rating, Soybean: 8
Soybean (Glycine max); Rate 250 g/ha, Preemergence
  Plant response rating, Soybean: 2
Soybean (Glycine max); Rate 500 g/ha, Postemergence
  Plant response rating, Soybean: 8
Soybean (Glycine max); Rate 500 g/ha, Preemergence
  Plant response rating, Soybean: 5
Rape (Brassica napus); Rate 62 g/ha, Postemergence
  Plant response rating, Rape: 9
Rape (Brassica napus); Rate 62 g/ha, Preemergence
  Rape plant response rating: 10
Rape (Brassica napus); Rate 125 g/ha, Postemergence
  Plant response rating, Rape: 9
Rape (Brassica napus); Rate 125 g/ha, Preemergence
  Rape plant response rating: 10
Rape (Brassica napus); Rate 250 g/ha, Postemergence
  Plant response rating, Rape: 9
Rape (Brassica napus); Rate 250 g/ha, Preemergence
  Plant response rating, Rape: 10
Rape (Brassica napus); Rate 500 g/ha, Postemergence
  Plant response rating, Rape: 10
Rape (Brassica napus); Rate 500 g/ha, Preemergence
  Plant response rating, Rape: 10
[3]; PREEMERGENCE, Rate 35 g/ha
  Plant response rating, Lambsquarters: 0
[3]; PREEMERGENCE, Rate 140 g/ha
  Plant response rating, Lambsquarters: 100
[4]; PREEMERGENCE, Rate 35 g/ha
  Plant response rating, E. blacknightsh: 5
[4]; PREEMERGENCE, Rate 70 g/ha
  Plant response rating, E. blacknightsh: 5
[4]; PREEMERGENCE, Rate 140 g/ha
  Plant response rating, E. blacknightsh: 90
[5]; PREEMERGENCE, Rate 35 g/ha
  Plant response rating, Cotton: 0
[5]; PREEMERGENCE, Rate 70 g/ha
  Plant response rating, Cotton: 5
[5]; PREEMERGENCE, Rate 140 g/ha
  Plant response rating, Cotton: 15
Rice (Oryza sativa); [11]
  Plant response rating, Rice: 3
Rice (Oryza sativa); [12]
  Plant response rating, Rice: 4
Rice (Oryza sativa); [13]
  Plant response rating, Rice: 5
Rice (Oryza sativa); [14]
  Plant response rating, Rice: 6
[6]; [11]
  Plant response rating, Barnyardgrass: 3
[6]; [12]
  Plant response rating, Barnyardgrass: 4
[6]; [13]
  Plant response rating, Barnyardgrass: 5
[6]; [14]
  Plant response rating, Barnyardgrass: 6
[7]; [11]
  Plant response rating, S. Flatsedge: 3
[7]; [12]
  Plant response rating, S. Flatsedge: 5
[7]; [13]
  Plant response rating, S. Flatsedge: 8
[7]; [14]
  Plant response rating, S. Flatsedge: 9
[8]; [11]
  Plant response rating, Ducksalad: 0
[8]; [12]
  Plant response rating, Ducksalad: 0
[8]; [13]
  Plant response rating, Ducksalad: 2
[8]; [14]
  Plant response rating, Ducksalad: 2
[9]; PREEMERGENCE, Rate 35 g/ha
  Plant response rating, Surinam grass: 0
[9]; PREEMERGENCE, Rate 70 g/ha
  Plant response rating, Surinam grass: 10
[9]; PREEMERGENCE, Rate 140 g/ha
  Plant response rating, Surinam grass: 35
[10]; PREEMERGENCE, Rate 35 g/ha
  Plant response rating, Giant foxtail: 0
[10]; PREEMERGENCE, Rate 70 g/ha
  Plant response rating, Giant foxtail: 5
[10]; PREEMERGENCE, Rate 140 g/ha
  Plant response rating, Giant foxtail: 100

## Cc1cnc(-c2ccc(C(F)(F)F)cc2)nc1Cn1ccc(C(F)(F)F)n1 [compound 9]
[1]; POSTEMERGENCE, Rate 35 g/ha
  Plant response rating, Wild poinsettia: 90
[1]; POSTEMERGENCE, Rate 70 g/ha
  Plant response rating, Wild poinsettia: 90
[1]; POSTEMERGENCE, Rate 140 g/ha
  Plant response rating, Wild poinsettia: 100
[1]; PREEMERGENCE, Rate 35 g/ha
  Plant response rating, Wild poinsettia: 10
[1]; PREEMERGENCE, Rate 70 g/ha
  Plant response rating, Wild poinsettia: 50
[1]; PREEMERGENCE, Rate 140 g/ha
  Plant response rating, Wild poinsettia: 50
[2]; POSTEMERGENCE, Rate 35 g/ha
  Plant response rating, Field bindweed: 60
[2]; POSTEMERGENCE, Rate 70 g/ha
  Plant response rating, Field bindweed: 70
[2]; POSTEMERGENCE, Rate 140 g/ha
  Plant response rating, Field bindweed: 80
[2]; PREEMERGENCE, Rate 35 g/ha
  Plant response rating, Field bindweed: 50
[2]; PREEMERGENCE, Rate 70 g/ha
  Plant response rating, Field bindweed: 100
[2]; PREEMERGENCE, Rate 140 g/ha
  Plant response rating, Field bindweed: 90
Soybean (Glycine max); Rate 62 g/ha, Postemergence
  Plant response rating, Soybean: 8
Soybean (Glycine max); Rate 62 g/ha, Preemergence
  Soybean plant response rating: 1
Soybean (Glycine max); Rate 125 g/ha, Postemergence
  Plant response rating, Soybean: 9
Soybean (Glycine max); Rate 125 g/ha, Preemergence
  Soybean plant response rating: 1
Soybean (Glycine max); Rate 250 g/ha, Postemergence
  Plant response rating, Soybean: 10
Soybean (Glycine max); Rate 250 g/ha, Preemergence
  Plant response rating, Soybean: 2
Soybean (Glycine max); Rate 500 g/ha, Postemergence
  Plant response rating, Soybean: 9
Soybean (Glycine max); Rate 500 g/ha, Preemergence
  Plant response rating, Soybean: 4
Rape (Brassica napus); Rate 62 g/ha, Postemergence
  Plant response rating, Rape: 9
Rape (Brassica napus); Rate 62 g/ha, Preemergence
  Rape plant response rating: 9
Rape (Brassica napus); Rate 125 g/ha, Postemergence
  Plant response rating, Rape: 10
Rape (Brassica napus); Rate 125 g/ha, Preemergence
  Rape plant response rating: 9
Rape (Brassica napus); Rate 250 g/ha, Postemergence
  Plant response rating, Rape: 10
Rape (Brassica napus); Rate 250 g/ha, Preemergence
  Plant response rating, Rape: 10
Rape (Brassica napus); Rate 500 g/ha, Postemergence
  Plant response rating, Rape: 10
Rape (Brassica napus); Rate 500 g/ha, Preemergence
  Plant response rating, Rape: 10
[3]; POSTEMERGENCE, Rate 35 g/ha
  Plant response rating, Lambsquarters: 75
[3]; POSTEMERGENCE, Rate 70 g/ha
  Plant response rating, Lambsquarters: 80
[3]; POSTEMERGENCE, Rate 140 g/ha
  Plant response rating, Lambsquarters: 100
[3]; PREEMERGENCE, Rate 35 g/ha
  Plant response rating, Lambsquarters: 95
[3]; PREEMERGENCE, Rate 70 g/ha
  Plant response rating, Lambsquarters: 100
[3]; PREEMERGENCE, Rate 140 g/ha
  Plant response rating, Lambsquarters: 100
[4]; POSTEMERGENCE, Rate 35 g/ha
  Plant response rating, E. blacknightsh: 100
[4]; POSTEMERGENCE, Rate 140 g/ha
  Plant response rating, E. blacknightsh: 100
[4]; PREEMERGENCE, Rate 35 g/ha
  Plant response rating, E. blacknightsh: 95
[4]; PREEMERGENCE, Rate 70 g/ha
  Plant response rating, E. blacknightsh: 100
[4]; PREEMERGENCE, Rate 140 g/ha
  Plant response rating, E. blacknightsh: 95
[5]; POSTEMERGENCE, Rate 35 g/ha
  Plant response rating, Cotton: 70
[5]; POSTEMERGENCE, Rate 70 g/ha
  Plant response rating, Cotton: 80
[5]; POSTEMERGENCE, Rate 140 g/ha
  Plant response rating, Cotton: 90
[5]; PREEMERGENCE, Rate 35 g/ha
  Plant response rating, Cotton: 10
[5]; PREEMERGENCE, Rate 70 g/ha
  Plant response rating, Cotton: 35
[5]; PREEMERGENCE, Rate 140 g/ha
  Plant response rating, Cotton: 50
Rice (Oryza sativa); [11]
  Plant response rating, Rice: 5
Rice (Oryza sativa); [12]
  Plant response rating, Rice: 6
Rice (Oryza sativa); [13]
  Plant response rating, Rice: 7
Rice (Oryza sativa); [14]
  Plant response rating, Rice: 8
[6]; [11]
  Plant response rating, Barnyardgrass: 5
[6]; [12]
  Plant response rating, Barnyardgrass: 5
[6]; [13]
  Plant response rating, Barnyardgrass: 7
[6]; [14]
  Plant response rating, Barnyardgrass: 8
[7]; [11]
  Plant response rating, S. Flatsedge: 8
[7]; [12]
  Plant response rating, S. Flatsedge: 9
[7]; [13]
  Plant response rating, S. Flatsedge: 9
[7]; [14]
  Plant response rating, S. Flatsedge: 9
[8]; [11]
  Plant response rating, Ducksalad: 4
[8]; [12]
  Plant response rating, Ducksalad: 6
[8]; [13]
  Plant response rating, Ducksalad: 7
[8]; [14]
  Plant response rating, Ducksalad: 6
[9]; POSTEMERGENCE, Rate 35 g/ha
  Plant response rating, Surinam grass: 5
[9]; POSTEMERGENCE, Rate 70 g/ha
  Plant response rating, Surinam grass: 5
[9]; POSTEMERGENCE, Rate 140 g/ha
  Plant response rating, Surinam grass: 20
[9]; PREEMERGENCE, Rate 35 g/ha
  Plant response rating, Surinam grass: 35
[9]; PREEMERGENCE, Rate 70 g/ha
  Plant response rating, Surinam grass: 80
[9]; PREEMERGENCE, Rate 140 g/ha
  Plant response rating, Surinam grass: 90
[10]; POSTEMERGENCE, Rate 35 g/ha
  Plant response rating, Giant foxtail: 15
[10]; POSTEMERGENCE, Rate 70 g/ha
  Plant response rating, Giant foxtail: 15
[10]; POSTEMERGENCE, Rate 140 g/ha
  Plant response rating, Giant foxtail: 30
[10]; PREEMERGENCE, Rate 35 g/ha
  Plant response rating, Giant foxtail: 90
[10]; PREEMERGENCE, Rate 70 g/ha
  Plant response rating, Giant foxtail: 100
[10]; PREEMERGENCE, Rate 140 g/ha
  Plant response rating, Giant foxtail: 100
